# How the values were obtained:
# Type in all cases: functional
# [1] = Induction of c-Fos expression in C57BL/6 mouse assessed as cFos cell count in brain at 0.03 mg/kg for 1 hr by immunohistochemistry (reference value: 470)
# [2] = Induction of c-Fos expression in C57BL/6 mouse assessed as cFos cell count in brain at 0.1 mg/kg for 1 hr by immunohistochemistry (reference value: 470)
# [3] = Induction of c-Fos expression in C57BL/6 mouse assessed as cFos cell count in brain at 0.3 mg/kg for 1 hr by immunohistochemistry (reference value: 470)
# [4] = Induction of c-Fos expression in C57BL/6 mouse assessed as cFos cell count in brain at 3 mg/kg for 1 hr by immunohistochemistry (reference value: 470)
# [5] = Induction of c-Fos expression in C57BL/6 mouse assessed as cFos cell count in brain at 0.3 mg/kg for 2 hrs by immunohistochemistry (reference value: 470)
# [6] = Induction of c-Fos expression in C57BL/6 mouse assessed as cFos cell count in brain at 0.3 mg/kg for 4 hrs by immunohistochemistry (reference value: 470)
# [7] = Induction of c-Fos expression in C57BL/6 mouse assessed as cFos cell count in brain at 0.1 mg/kg for 1 days by immunohistochemistry (reference value: 352); conditions: time 1 day
# [8] = Induction of c-Fos expression in C57BL/6 mouse assessed as cFos cell count in brain at 0.1 mg/kg for 5 days by immunohistochemistry (reference value: 352 to 450); conditions: time 5 day
# [9] = Induction of c-Fos expression in C57BL/6 mouse assessed as cFos cell count in brain at 0.1 mg/kg for 10 days by immunohistochemistry (reference value: 450); conditions: time 10 day
# [10] = Induction of c-Fos expression in C57BL/6 mouse assessed as cFos cell count in brain at 0.01 mg/kg by immunohistochemistry (reference value: 267)
# [11] = Induction of c-Fos expression in C57BL/6 mouse assessed as cFos cell count in brain at 0.03 mg/kg by immunohistochemistry (reference value: 267)
# [12] = Induction of c-Fos expression in C57BL/6 mouse assessed as cFos cell count in brain at 0.1 mg/kg by immunohistochemistry (reference value: 267)
# [13] = Induction of c-Fos expression in C57BL/6 mouse assessed as cFos cell count in brain at 0.3 mg/kg by immunohistochemistry (reference value: 267)
# [14] = Induction of c-Fos expression in C57BL/6 mouse assessed as cFos cell count in brain at 1 mg/kg by immunohistochemistry (reference value: 267)
# [15] = Induction of c-Fos expression in C57BL/6 mouse assessed as cFos cell count in brain at 0.1 mg/kg for 1 hr by immunohistochemistry (reference value: 413.7)
# [16] = Induction of c-Fos expression in C57BL/6 mouse assessed as cFos cell count in brain at 0.3 mg/kg for 1 hr by immunohistochemistry (reference value: 413.7)
# [17] = Induction of c-Fos expression in C57BL/6 mouse assessed as cFos cell count in brain at 3 mg/kg for 1 hr by immunohistochemistry (reference value: 413.7)
# [18] = Induction of c-Fos expression in C57BL/6 mouse assessed as cFos cell count in brain at 0.3 mg/kg for 2 hrs by immunohistochemistry (reference value: 413.7)
# [19] = Induction of c-Fos expression in C57BL/6 mouse assessed as cFos cell count in brain at 0.3 mg/kg for 4 hrs by immunohistochemistry (reference value: 413.7)
smiles,measurement,setting,value
COc1cccc2nnn(CC(=O)N[C@@H](C)c3ccc(C)cc3)c(=O)c12,Activity,[1],1628
same,Activity,[2],2243
same,Activity,[3],2458
same,Activity,[4],2023
same,Activity,[5],2777
same,Activity,[6],865
C[C@H](NC(=O)Cn1nnc2ccccc2c1=O)c1ccc(OC(F)(F)F)cc1 [ZELATRIAZIN],Activity,[7],1486
same,Activity,[8],1928
same,Activity,[9],1684
same,Activity,[10],1376
same,Activity,[11],986.3
same,Activity,[12],1381
same,Activity,[13],1408
same,Activity,[14],1368
same,Activity,[15],787.7
same,Activity,[16],1343
same,Activity,[17],2365
same,Activity,[18],1400
same,Activity,[19],2170
